Data published in US7521207B2, “Rhesus monkey Nur77” (Merck & Co., Inc., priority 2005, dated 2009).

Tests used:
[1] = test system: Nur77 expression in 22RV1 cells; assay: Expression of Nur77 in prostrate cancer cells (FIG. 5); format: cell-based; details: prostrate cancer cells (22RV1 cells), to various extents
[2] = test system: Nur77 expression in the seminal vesicles; details: orchiectomized (ORX) rats, FIG. 6, to various extents

## C[C@]12CCC(=O)C[C@@H]1CC[C@@H]1[C@@H]2CC[C@]2(C)[C@@H](O)CC[C@@H]12 [DHT, dihydrotestosterone]
[1]
  expression of Nur77: can be controlled
[2]
  expression of Nur77: can be modulated
